{
  "source": "patent US20040071718A1",
  "about": "“Local nasal immunotherapy for allergen-induced airway inflammation” (priority 2002, published 2004)",
  "assay_type_in_all_cases": "in vivo",
  "key": {"Balb/c mice [1]": {"system": "Balb/c mice", "assay": "IL-5 and IFN-γ levels in sera and BALF (ELISA) after LNIT", "details": "Example 2, mean ± SEM, n = 6", "description": "(§1) Male Balb/c mice were obtained from the National Laboratory Breeding Research Center in Taiwan and were raised in a specific pathogen-free environment. The mice used were between six and eight weeks of age. Groups of six mice were caged separately according to their treatment.\n(§2) Mice were immunized by way of an intraperitoneal (IP) injection of 1 μg/0.1 mL rDp2 emulsified in 4.0 mg/0.062mL aluminum hydroxide Al(OH)3 (Whitehall Lab Ltd. Punchbowl, NSW, Australia) on day 0 and day 7. Following immunization, local nasal immunotherapy (LNIT) was conducted daily from day 14 to day 35 with Dp2 28-40, Dp2 28-40A, FIP alone or FIP mixed with either Dp2 28-40 or Dp2 28-40A (FIP, 50 μg/mouse/day; Dp2 peptide, 1 μg/20 μL) in PBS with 10% glycerol. Normal saline (NS) and irrelevant allergen Bt were used as a negative control. […] On day 28, mice were lightly anesthetized with an IP injection of 60 mg/kg of sodium pentobarbital (Sigma Chemical Co., St Louis, Mo., U.S.A.) and inoculated intratracheally (IT) with 1 μg/50 μL of rDp 2 on day 28 and day 35. Two days subsequent to the second IT inoculation, the mice were sacrificed following the assessment of their pulmonary function (FIG. 1).\nIFN-γ and IL-5 were measured using commercially-available ELISA kits, using a specific mouse monoclonal Ab that recognized different epitopes of the cytokine molecules. The lowest detector range was 10 pg/mL. Given that the BALF was considered to be at too diluted a concentration, IL-4 was not measured."}, "Balb/c mice [2]": {"system": "Balb/c mice", "assay": "Cytokine producing cells in peripheral blood (flow cytometry) after LNIT", "details": "for IL-5/IFN-γ (CD4) / IL-5/IFN-γ (CD8): peripheral blood", "description": "as §1, §2\nTwo-color staining methods were used to analyze IFN-γ and IL-5 expression amongst CD4 cells. Leukocytes derived from peripheral blood (PBL) were stimulated with PMA (50 ng/mL), ionomycin (2 μM) and GolgiStop (Cytofix/Cytoperm Plus Pharmingen San Diego, Calif., U.S.A.) for five hours and then washed twice using PBS. The cells were stained with CD4-PerCP, CD8-FITC or IgG1-FITC (PharMingen) at room temperature (RT) for 30 minutes and then washed. Cells were fixed with cytofix/cytoperm at RT for 30 minutes and then stained with anti-cytokine antibody and IgG2a-PE (PharMingen) at RT for 30 minutes and subsequently washed. Both IgG1-FITC and IgG2a-PE were purchased from the same manufacturer as the anticytokine antibodies and the negative controls. Cells were resuspended in 0.5 mL PBS containing 0.1% w/v sodium azide. Mean fluorescence was measured by means of Becton Diskinson flow cytometry (Becton Diskinson, Calif., U.S.A.). A total of 2,000 cells was analyzed for each sample."}, "Balb/c mice [3]": {"system": "Balb/c mice", "assay": "Leukocyte subpopulations in BALF of rDp2-sensitized mice after local nasal immunotherapy (LNIT)", "details": "BALF", "description": "Male Balb/c mice were obtained from the National Laboratory Breeding Research Center in Taiwan and were raised in a specific pathogen-free environment. The mice used were between six and eight weeks of age. Groups of six mice were caged separately according to their treatment. Recombinant Dermatophoides pteronyssinus group 2 (rDp2) was prepared as previously described(Tsai J J, et al. Int Arch Allergy Immunol 2000;121:205-10). Dp2 28-40 and Dp2 28-40A were obtained from Dr. Jonathan Lamb (Respiratory Medicine Unit, Edinburgh University, Medical School, Edinburgh, UK) (Verhoef A, and Lamb J R. J Immunol 2000;164:6034-6040). FIP was obtained from Dr. Ko Jiunn-Liang (Institute of Toxicology, Chung Shan Medical University, Taichung, R O C) (J L Ko, et al. Eur. J. Biochem. 1995;228:244-249).\nas §2\nSubsequent to pulmonary function measurement having been completed, bronchoalveolar lavage (BAL) was performed using the following procedure. BAL fluids were collected with lmL sterile endotoxin-free saline washes of each lung via the trachea for each mouse. BAL cells were washed once with PBS by centrifugation at 200×g at 4° C. Subsequent to washing, the cells were resuspended in RPMI-1640 (Sigma Chemical Co.). The total leukocyte count in BAL fluids was determined using a hemocytometer. The BAL fluids were aspirated and stored at −70° C. until needed for assay purposes. Subsequent to total leukocyte counting, a cytospin preparation of 100 μL BAL fluids (2×10^5 cells/mL) was conducted, the cells being cytocentrifuged directly onto glass slides at 350 r.p.m. for five minutes using a Cytospin 3 cytocentrifuge (Shandon Scientific Limited, Astmoor, Runcorn, UK), and then stained with Liu stain (Tonyar Diagnostic Inc, Taipei & Hien, Taiwan). The differential counts were performed for a total of 200 leukocyte cells."}, "[4]": {"details": "Example 1, percentage of positive stained cells in the PBMC of six mice"}, "[5]": {"details": "Example 2, percentage of total leukocytes in the peripheral blood of six mice"}, "[6]": {"details": "Example 1, LNIT day 14-35, rDp2 IT challenge, mean ± SEM of six animals"}, "[7]": {"details": "Example 2 (FIP study), mean ± SEN of six mice"}},
  "note": "Marks after values point to notes of the source that are not given here.",
  "data": [
    {"smiles": "C[C@@H]1C[C@H]2[C@@H]3CCC4=CC(=O)C=C[C@]4(C)[C@@]3(F)[C@@H](O)C[C@]2(C)[C@@]1(O)C(=O)CO", "note": "[DEX, Dexamethasone, reference compound]", "values": [
      {"measurement": "IFN-γ", "setting": "Balb/c mice [1]; BALF", "result": "9.9 ± 0.6", "unit": "pg/mL"},
      {"measurement": "IL-5", "setting": "Balb/c mice [1]; BALF", "result": "19.2 ± 1.2", "unit": "pg/mL"},
      {"measurement": "IFN-γ", "setting": "Balb/c mice [1]; Sera", "result": "46.2 ± 3.4", "unit": "pg/mL"},
      {"measurement": "IL-5", "setting": "Balb/c mice [1]; Sera", "result": "138.0 ± 16.6", "unit": "pg/mL"},
      {"measurement": "CD4^+", "setting": "Balb/c mice [2]; [4]", "result": 45.6, "unit": "percentage"},
      {"measurement": "CD8^+", "setting": "Balb/c mice [2]; [4]", "result": 7.0, "unit": "percentage"},
      {"measurement": "IFN-γ^+/CD4^+", "setting": "Balb/c mice [2]; [4]", "result": 7.9, "unit": "percentage"},
      {"measurement": "IFN-γ^+/CD8^+", "setting": "Balb/c mice [2]; [4]", "result": 7.9, "unit": "percentage"},
      {"measurement": "IL-5^+/CD4^+", "setting": "Balb/c mice [2]; [4]", "result": 9.2, "unit": "percentage"},
      {"measurement": "IL-5^+/CD8^+", "setting": "Balb/c mice [2]; [4]", "result": 8.2, "unit": "percentage"},
      {"measurement": "IL-5/IFN-γ (CD4)", "setting": "Balb/c mice [2]; Example 1, ratio of IL-5 to IFN-γ producing CD4 cells", "result": 1.2},
      {"measurement": "IL-5/IFN-γ (CD8)", "setting": "Balb/c mice [2]; Example 1, ratio of IL-5 to IFN-γ producing CD8 cells", "result": 1.0},
      {"measurement": "CD4", "setting": "Balb/c mice [2]; [5]", "result": 51.2, "unit": "percentage"},
      {"measurement": "CD8", "setting": "Balb/c mice [2]; [5]", "result": 7.9, "unit": "percentage"},
      {"measurement": "IFN-γ^+/CD4^+", "setting": "Balb/c mice [2]; [5]", "result": 17.7, "unit": "percentage"},
      {"measurement": "IFN-γ^+/CD8^+", "setting": "Balb/c mice [2]; [5]", "result": 14.1, "unit": "percentage"},
      {"measurement": "IL-5^+/CD4^+", "setting": "Balb/c mice [2]; [5]", "result": 15.8, "unit": "percentage"},
      {"measurement": "IL-5^+/CD8^+", "setting": "Balb/c mice [2]; [5]", "result": 14.1, "unit": "percentage"},
      {"measurement": "IL-5/IFN-γ (CD4)", "setting": "Balb/c mice [2]; Example 2, ratio, CD4 cells", "result": 0.9},
      {"measurement": "IL-5/IFN-γ (CD8)", "setting": "Balb/c mice [2]; Example 2, ratio, CD8 cells", "result": 1.0},
      {"measurement": "Eosinophil", "setting": "Balb/c mice [3]; [6]", "result": "3.2 ± 0.4* 10^4 cells/mL"},
      {"measurement": "Lymphocyte", "setting": "Balb/c mice [3]; [6]", "result": "9.4 ± 1.5* 10^4 cells/mL"},
      {"measurement": "Macrophage", "setting": "Balb/c mice [3]; [6]", "result": "29.2 ± 4.4* 10^4 cells/mL"},
      {"measurement": "Neutrophil", "setting": "Balb/c mice [3]; [6]", "result": "6.6 ± 1.0* 10^4 cells/mL"},
      {"measurement": "Total cell", "setting": "Balb/c mice [3]; [6]", "result": "46.4 ± 2.2* 10^4 cells/mL"},
      {"measurement": "Eosinophil", "setting": "Balb/c mice [3]; [7]", "result": "3.8 ± 0.5 ×10^4/mL"},
      {"measurement": "Lymphocyte", "setting": "Balb/c mice [3]; [7]", "result": "15.3 ± 0.6 ×10^4/mL"},
      {"measurement": "Macrophage", "setting": "Balb/c mice [3]; [7]", "result": "28.3 ± 1.7 ×10^4/mL"},
      {"measurement": "Neutrophil", "setting": "Balb/c mice [3]; [7]", "result": "8.0 ± 0.8 ×10^4/mL"}
    ]}
  ]
}
